Experimental data from patent US8119805B2, “Substituted disulfonamide compounds” (Gruenenthal GmbH, priority 2008, dated 2012).
Structures can show the parent of a compound that is named as a salt.

Legend:
[1] = target: T1, B1R receptor of the rat (rB1R) (Rattus norvegicus, UniProt P97583); experiment: Functional investigation on the bradykinin 1 receptor (B1R), FLIPR Ca2+ assay, rB1R cells; type: cell-based; settings: test substance 10 μM; CHO K1 cells transfected with rat B1R gene; Fluo-4 Ca2+ signal; agonist Des-Arg9-bradykinin at EC80; % of maximum achievable inhibition; read-out: B1R antagonism, rat [10 μM] % inhibition
T1 construct: expressed in transfected cells; host or cells: CHO K1 cells
T1 sequence (P97583 1-337): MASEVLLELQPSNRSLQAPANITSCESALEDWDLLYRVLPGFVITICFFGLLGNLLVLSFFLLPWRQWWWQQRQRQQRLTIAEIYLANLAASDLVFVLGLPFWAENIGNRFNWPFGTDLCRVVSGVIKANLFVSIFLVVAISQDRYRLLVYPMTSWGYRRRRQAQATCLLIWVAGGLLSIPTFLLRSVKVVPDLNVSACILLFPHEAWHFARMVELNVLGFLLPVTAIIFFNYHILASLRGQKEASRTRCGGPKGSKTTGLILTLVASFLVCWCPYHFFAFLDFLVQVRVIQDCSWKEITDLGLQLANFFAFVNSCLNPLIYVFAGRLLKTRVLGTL
Description: (§1) The agonistic or antagonistic action of substances on the bradykinin 1 receptor (B1R) of the human and rat species can be quantified with ectopically expressing cell lines (CHO K1 cells) and with the aid of a Ca^2+-sensitive dyestuff (Fluo-4) in a fluorescent imaging plate reader (FLIPR). The value in % activation is based on the Ca^2+ signal after addition of Lys-Des-[…]-bradykinin (0.5 nM) or Des-[…]-bradykinin (100 nM). Antagonists lead to a suppression of the Ca^2+inflow after addition of the agonist. % inhibition compared with the maximum achievable inhibition is stated. The agonistic or antagonistic action of substances on the bradykinin 1 receptor (B1R) of the human and rat species can be determined with the following assay. In accordance with this assay, the Ca^2+ inflow through the channel is quantified with the aid of a Ca^2+-sensitive dyestuff (type Fluo-4, Molecular Probes Europe BV, Leiden, Holland) in a fluorescent imaging plate reader (FLIPR, Molecular Devices, Sunnyvale, USA). Chinese hamster ovary cells (CHO K1 cells) transfected stably with the human B1R gene (hB1R cells) or the B1R gene of the rat (rB1R cells) are used. For functional studies, these cells are plated out on black 96-well plates with a clear base (BD Biosciences, Heidelberg, Germany or Greiner, Frickenhausen, Germany) in a density of 20,000-35,000 cells/well. The cells are left overnight at 37° C. and 5% CO2 in culture medium (hB1R cells: Nutrient Mixture Ham's F12, Gibco Invitrogen GmbH, Karlsruhe, Germany or DMEM, Sigma-Aldrich, Taufkirchen, Germany; rB1R cells: D-MEM/F12, Gibco Invitrogen GmbH, Karlsruhe, Germany) with 10 vol. % FBS (foetal bovine serum, Gibco Invitrogen GmbH, Karlsruhe, Germany or PAN Biotech GmbH, Aidenbach, Germany). On the following day, the cells are loaded for 60 min at 37° C. with 2.13 μM Fluo-4 (Molecular Probes Europe BV, Leiden Holland) in HBSS buffer (Hank's buffered saline solution, Gibco Invitrogen GmbH, Karlsruhe, Germany) with 2.5 mM probenecid (Sigma-Aldrich, Taufkirchen, Germany) and 10 mM HEPES (Sigma-Aldrich, Taufkirchen, Germany). The plates are then washed 2× with HBSS buffer, and HBSS buffer which additionally contains 0.1% BSA (bovine serum albumin; Sigma-Aldrich, Taufkirchen, Germany), 5.6 mM glucose and 0.05% gelatine (Merck KGaA, Darmstadt, Germany) is added. After a further incubation of 20 minutes at room temperature, the plates are inserted into the FLIPR for the Ca^2+ measurement. Alternatively, the plates are washed with buffer A (15 mM HEPES, 80 mM NaCl, 5 mM KCl, 1.2 mM CaCl2, 0.7 mM MgSO4, 2 g/l glucose, 2.5 mM probenecid), buffer A is added and the plates are loaded with 2.5 μM Fluo-4 and 0.025% Pluronic F127 (Sigma-Aldrich, Taufkirchen, Germany). Thereafter, the cells are washed 2× with buffer A and incubated for 30 minutes at room temperature with buffer A, which additionally contains 0.05% BSA and 0.05% gelatine, and thereafter inserted into the FLIPR for the Ca^2+ measurement. The Ca^2+-dependent fluorescence is measured here before and after addition of substances (λex=488 nm, λem=540 nm). Quantification is by measurement of the highest fluorescence intensity (FC, fluorescence counts) over time. The FLIPR protocol consists of 2 additions of substance. Test substances (10 μM) are first pipetted on to the cells and the Ca^2+ inflow is compared with the control (hB1R: Lys-Des-[…]-bradykinin>=50 nM; rB1R: Des-[…]-bradykinin 10 μM). This gives the result in % activation based on the Ca^2+ signal after addition of Lys-Des-[…]-bradykinin (>=50 nM) or Des-[…]-bradykinin (10 μM). After incubation for 10-20 minutes, Lys-Des-[…]-bradykinin (hB1R) or Des-[…]-bradykinin (rB1R) at the EC80 concentration is applied and the inflow of Ca^2+ is likewise determined. Antagonists lead to a suppression of the Ca^2+ inflow. The percent inhibition compared to the maximum achievable inhibition is calculated. In order to determine the IC50 value, the substances are added in various concentrations. […]

[2] = target: T2, human B1R receptor (hB1R) (Homo sapiens, UniProt P46663); experiment: Functional investigation on the bradykinin 1 receptor (B1R), FLIPR Ca2+ assay, hB1R cells; type: cell-based; settings: test substance 10 μM; CHO K1 cells transfected with human B1R gene; Fluo-4 Ca2+ signal; agonist Lys-Des-Arg9-bradykinin at EC80; % of maximum achievable inhibition; read-out: B1R antagonism, human [10 μM] % inhibition
T2 construct: expressed in transfected cells; host or cells: CHO K1 cells
T2 sequence (P46663 1-353): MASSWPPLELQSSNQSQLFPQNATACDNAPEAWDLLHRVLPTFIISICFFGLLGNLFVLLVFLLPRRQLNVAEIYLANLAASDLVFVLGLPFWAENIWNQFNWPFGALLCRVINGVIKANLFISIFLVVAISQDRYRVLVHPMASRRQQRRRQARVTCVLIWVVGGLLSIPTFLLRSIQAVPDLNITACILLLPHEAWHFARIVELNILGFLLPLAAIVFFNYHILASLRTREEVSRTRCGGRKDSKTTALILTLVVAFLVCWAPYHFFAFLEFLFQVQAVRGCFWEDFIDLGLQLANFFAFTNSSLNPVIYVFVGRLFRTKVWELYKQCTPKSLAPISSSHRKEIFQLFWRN
Description: as §1

Row | Compound | inhibition at 10 µM [1] | inhibition at 10 µM [2]
1 | CN1CCC(N2CCN(S(=O)(=O)CCC[C@@H]3CCCN3S(=O)(=O)c3c(Cl)cc(Cl)cc3Cl)CC2)CC1 [Example 28, (S)-1-(1-Methylpiperidin-4-yl)-4-(3-(1-(2,4,6-trichlorophenylsulfonyl)pyrrolidin-2-yl)propylsulfonyl)piperazine] | 91% | 104%
2 | COc1cc(C)c(S(=O)(=O)N2CCC[C@H]2CCCS(=O)(=O)N2CCC3(CCN(c4ccncc4)CC3)C2)c(C)c1 [Example 85, (S)-2-(3-(1-(4-Methoxy-2,6-dimethylphenylsulfonyl)pyrrolidin-2-yl)propylsulfonyl)-8-(pyridin-4-yl)-2,8-diazaspiro[4.5]decane] | 101% | 99%
3 | COc1cc(C)c(S(=O)(=O)N2CCCC(CCS(=O)(=O)N3CCC(CCN4CCCC4)CC3)C2)c(C)c1C (centres unmarked) [Example 39, 1-(4-Methoxy-2,3,6-trimethylphenylsulfonyl)-3-(2-(4-(2-(pyrrolidin-1-yl)ethyl)piperidin-1-ylsulfonyl)ethyl)piperidine hydrochloride] | 27% | 44%
4 | Cc1cc(C)c(S(=O)(=O)N2CCC[C@@H]2CCCS(=O)(=O)N2CCN(C3CCN(C)CC3)CC2)c(C)c1 [Example 41, (R)-1-(3-(1-(Mesitylsulfonyl)pyrrolidin-2-yl)propylsulfonyl)-4-(1-methylpiperidin-4-yl)piperazine dihydrochloride] | 7% | 50%
5 | COc1cc(C)c(S(=O)(=O)N2CCC[C@H]2CCCS(=O)(=O)N2CCN(C3CCN(C)CC3)CC2)c(C)c1 [Example 32, (S)-1-(3-(1-(4-Methoxy-2,6-dimethylphenylsulfonyl)pyrrolidin-2-yl)propylsulfonyl)-4-(1-methylpiperidin-4-yl)piperazine] | 99% | 105%
6 | Cc1cc(S(=O)(=O)N2CCC(CCS(=O)(=O)N3CCN(Cc4cccc(C#N)c4)CC3)C2)c(C)cc1Cl (centres unmarked) [Example 43, 3-((4-(2-(1-(4-Chloro-2,5-dimethylphenylsulfonyl)pyrrolidin-3-yl)ethylsulfonyl)piperazin-1-yl)methyl)benzonitrile hydrochloride] | 50% | 11%
7 | COc1cc(C)c(S(=O)(=O)N2CCC[C@H]2CCCS(=O)(=O)N2CCC3(CCN(c4ccncc4)CC3)CC2)c(C)c1 [Example 64, 3-(3-((S)-1-(4-Methoxy-2,6-dimethylphenylsulfonyl)pyrrolidin-2-yl)propylsulfonyl)-9-(pyridin-4-yl)-3,9-diazaspiro[5.5]undecane] | 99% | 99%
8 | Cc1cc(C)c(S(=O)(=O)N2CC[C@@H]2CCCS(=O)(=O)N2CCC(CCN3CCCC3)CC2)c(C)c1 [Example 4, (S)-1-(3-(1-(Mesitylsulfonyl)azetidin-2-yl)propylsulfonyl)-4-(2-(pyrrolidin-1-yl)ethyl)piperidine hydrochloride] | 13% | 76%
9 | Cc1cc(C)c(S(=O)(=O)N2CCCC(CCCS(=O)(=O)N3CCC(CCN4CCCC4)CC3)C2)c(C)c1 (centres unmarked) [Example 11, 1-(Mesitylsulfonyl)-3-(3-(4-(2-(pyrrolidin-1-yl)ethyl)piperidin-1-ylsulfonyl)propyl)piperidine hydrochloride] | 26% | 65%

More lines, now with the values ahead:

Row | inhibition at 10 µM [1] | inhibition at 10 µM [2] | Compound
10 | 12% | 33% | CC1(C)CCc2cc(S(=O)(=O)N3CCC[C@H]3CCCS(=O)(=O)N3CCC(Oc4ccncc4)CC3)ccc2O1 [Example 69, (S)-4-(1-(3-(1-(2,2-Dimethylchroman-6-ylsulfonyl)pyrrolidin-2-yl)propylsulfonyl)piperidin-4-yloxy)pyridine]
11 | 93% | 74% | O=S(=O)(CCC[C@@H]1CCCN1S(=O)(=O)c1ccc(Cl)cc1Cl)N1CCC(Oc2ccncc2)CC1 [Example 51, (S)-4-(1-(3-(1-(2,4-Dichlorophenylsulfonyl)pyrrolidin-2-yl)propylsulfonyl)piperidin-4-yloxy)pyridine]
12 | 36% | 30% | O=S(=O)(CCC[C@@H]1CCCN1S(=O)(=O)c1ccc2ccccc2c1)N1CCC(Oc2ccncc2)CC1 [Example 49, (S)-4-(1-(3-(1-(Naphthalen-2-ylsulfonyl)pyrrolidin-2-yl)propylsulfonyl)piperidin-4-yloxy)pyridine]
13 | 64% | 89% | CN1CCC(N2CCN(S(=O)(=O)CCC[C@@H]3CCCN3S(=O)(=O)c3ccc(Cl)cc3Cl)CC2)CC1 [Example 31, (S)-1-(3-(1-(2,4-Dichlorophenylsulfonyl)pyrrolidin-2-yl)propylsulfonyl)-4-(1-methylpiperidin-4-yl)piperazine]
14 | 89% | 95% | COc1cc(C)c(S(=O)(=O)N2C[C@@H](F)C[C@H]2CCCS(=O)(=O)N2CCC(Oc3ccncc3)CC2)c(C)c1 [Example 36, 4-(1-(3-((2R,4S)-4-Fluoro-1-(4-methoxy-2,6-dimethylphenylsulfonyl)pyrrolidin-2-yl)propylsulfonyl)piperidin-4-yloxy)pyridine]
15 | 97% | 98% | O=S(=O)(CCC[C@@H]1CCCN1S(=O)(=O)c1cccc2ccccc12)N1CCC2(CCN(c3ccncc3)CC2)CC1 [Example 67, 3-(3-((S)-1-(Naphthalen-1-ylsulfonyl)pyrrolidin-2-yl)propylsulfonyl)-9-(pyridin-4-yl)-3,9-diazaspiro[5.5]undecane hydrochloride]
16 | 102% | 100% | COc1cc(C)c(S(=O)(=O)N2CCC[C@H]2CCCS(=O)(=O)N2CCC3(CCC(Oc4ccncc4)CC3)CC2)c(C)c1 [Example 66, 3-(3-((S)-1-(4-Methoxy-2,6-dimethylphenylsulfonyl)pyrrolidin-2-yl)propylsulfonyl)-9-(pyridin-4-yloxy)-3-azaspiro[5.5]undecane hydrochloride]
